# Reference: patent US20090285917A1, “COMPOSITION COMPRISING COMPLEX CRUDE DRUG EXTRACTS SHOWING ANTI-ALLERGIC RHINITIS, ANTI-ATOPIC DERMATITIS AND ANTI-ASTHMA ACTIVITY” (priority 2006, published 2009)
# Where a name gives a salt, the structure may show the parent alone.
# Tested on: Passive Cutaneous Anaphylaxis in male mouse
# Assay: Passive cutaneous anaphylaxis (PCA), evans blue in ears
# Format: in vivo
# Experimental: Anti-DNP (anti-Dinitrophenyl) of 1.2 ug/mL, […], Sigma was injected by 10 ul into both ears of a male mouse, and 47 hours after antibody Dinitrophenyl injection, the sample is oral-administrated. One hour later (48 hours after antibody-Dinitrophenyl injection), 1.25 mg of DNP-albumin, […], Sigma and a biological salt solution dissolved with 1.25 mg of evans blue, […], Sigma was injected into a tail vein for thereby causing a certain reaction. Neck back bone was broken, and the mouse was dead, and the evans blue color component was measured from both ears. As control groups, promethazine hydrochloride, […], Sigma was used.
structure (smiles),measurement,setting,value
"CC(CN1c2ccccc2Sc2ccccc21)N(C)C (stereo not drawn) [Promethazine hydrochloride, promethazine hydrochloride]",Amount of Color,"administration amount 2, oral",7.8 ± 0.5 ug/a pair of ears
same,Amount of Color,"administration amount 5, oral",5.4 ± 1.1 ug/a pair of ears
same,Amount of Color,"administration amount 10, oral",1.7 ± 1.0 ug/a pair of ears
